The assay has as its system P388 leukemia ip, CD2F1 mice, survival T/C. In words: NCI In Vivo Anticancer Drug Screen. Data for tumor model P388 Leukemia (intraperitoneal) in CD2F1 (CDF1) mice. As to conditions: endpoint: median survival time, higher = longer survival. Put shortly: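 Mice carrying the transplanted tumor received test compound or vehicle. Survival was recorded in each group, and the value is the treated-group measurement divided by that of the vehicle-treated control group.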

[1] abbreviates: dose: 60.0 mg/kg/injection, schedule: Q01DX005 (ip), vehicle: saline.
Setting [2] is: dose: 120.0 mg/kg/injection, schedule: Q01DX005 (ip), vehicle: saline.
The mark [3] stands for this setting: dose: 50.0 mg/kg/injection, schedule: Q01DX009 (ip), vehicle: saline with Tween-80.
[4] abbreviates: dose: 100.0 mg/kg/injection, schedule: Q01DX009 (ip), vehicle: saline with Tween-80.
The mark [5] stands for this setting: dose: 100.0 mg/kg/injection, schedule: Q01DX005 (ip), vehicle: saline with Tween-80.
[6] abbreviates: dose: 200.0 mg/kg/injection, schedule: Q01DX005 (ip), vehicle: saline with Tween-80.
Where [7] appears, read: dose: 200.0 mg/kg/injection, schedule: Q01DX009 (ip), vehicle: saline with Tween-80.
[8] abbreviates: dose: 50.0 mg/kg/injection, schedule: Q01DX009 (ip), vehicle: saline.
Setting [9] is: dose: 100.0 mg/kg/injection, schedule: Q01DX009 (ip), vehicle: saline.
The mark [10] stands for this setting: dose: 60.0 mg/kg/injection, schedule: Q01DX005 (ip), vehicle: saline with Tween-80.
Where [11] appears, read: dose: 120.0 mg/kg/injection, schedule: Q01DX005 (ip), vehicle: saline with Tween-80.
[12] abbreviates: dose: 240.0 mg/kg/injection, schedule: Q01DX005 (ip), vehicle: saline with Tween-80.
Where [13] appears, read: dose: 50.0 mg/kg/injection, schedule: Q01DX005 (ip), vehicle: saline.
The mark [14] stands for this setting: dose: 100.0 mg/kg/injection, schedule: Q01DX005 (ip), vehicle: saline.

Where “and” joins values, the source holds several entries; their conditions need not be identical. Equal entries are not always repeated. Toxic doses and inconclusive results are not listed.

In the case of `CCCC(CC(=O)O)c1c2c(c(O)c3c1OC(C)C(C)C3=O)C=CC(C)(C)O2` (centres undefined), the T/C reads like this: (dose: 60.0 mg/kg/injection, schedule: Q01DX005 (ip), vehicle: Klucel (hydroxypropylcellulose) (HPC)) 97 % of control; (dose: 120.0 mg/kg/injection, schedule: Q01DX005 (ip), vehicle: Klucel (hydroxypropylcellulose) (HPC)) 103 % of control; (dose: 240.0 mg/kg/injection, schedule: Q01DX005 (ip), vehicle: Klucel (hydroxypropylcellulose) (HPC)) 93 % of control.

Regarding `COC(=O)c1cc(C=C(C)C)[nH]c(=O)c1C#N`, the T/C is, setting by setting: (dose: 30.0 mg/kg/injection, schedule: Q01DX005 (ip), vehicle: saline) 99 % of control; under setting [1], 100 % of control and 107 % of control; under setting [2], 107 % of control.

As to `N#CS.[Cr+3].[NH-]CC[NH-].[NH-]CC[NH-].[NH-]CC[NH-]`, the T/C was 104 % of control under setting [3]; 95 % of control under setting [4]; 100 % of control (dose: 100.0 mg/kg/injection, schedule: Q04DX003 (ip), vehicle: saline with Tween-80); 104 % of control (dose: 200.0 mg/kg/injection, schedule: Q04DX003 (ip), vehicle: saline with Tween-80).

Consider `COc1ccc(O)c2c1C(=O)C=CC2=O`, for which the T/C was 104 % of control (dose: 0.4 mg/kg/injection, schedule: Q01DX001 (ip), vehicle: saline with Tween-80); 96 % of control (dose: 0.8 mg/kg/injection, schedule: Q01DX001 (ip), vehicle: saline with Tween-80); 105 % of control (dose: 1.56 mg/kg/injection, schedule: Q01DX001 (ip), vehicle: saline with Tween-80); 102 % of control (dose: 3.13 mg/kg/injection, schedule: Q01DX001 (ip), vehicle: saline with Tween-80).

`CC(C)C(NC(=O)C(CCCCN)N(C(=O)OCc1ccccc1)C(=O)OCc1ccccc1)C(=O)O` (centres undefined): the T/C is, setting by setting: (dose: 50.0 mg/kg/injection, schedule: Q01DX005 (ip), vehicle: saline with Tween-80) 100 % of control; under setting [5], 93 % of control; under setting [6], 92 % of control.

As to `CCCOc1c(C)cc(C(=O)CCN2CCOCC2)cc1Cl`, the T/C reads like this: under setting [3], 113 % of control; under setting [4], 112 % of control; under setting [7], 99 % of control.

Turning to `c1ccc2c(Cc3nn[nH]n3)noc2c1`, the T/C under setting [3] was 109 % of control, the T/C under setting [4] is 107 % of control and the T/C under setting [7] was 100 % of control.

On to `N[C@H]1CCC[C@@H](O)C1O` (some centres undefined), for which the T/C was 103 % of control under setting [1]; 100 % of control under setting [2]; 109 % of control (dose: 240.0 mg/kg/injection, schedule: Q01DX005 (ip), vehicle: saline).

On to `CONc1ccn(C2OC(CO)C(O)C2O)c(=O)n1` (centres undefined), for which the T/C is 101 % of control and 104 % of control (dose: 12.5 mg/kg/injection, schedule: Q01DX009 (ip), vehicle: saline); 112 % of control and 117 % of control (dose: 25.0 mg/kg/injection, schedule: Q01DX009 (ip), vehicle: saline); 99 % of control and 113 % of control under setting [8]; 112 % of control under setting [9].

Turning to `CCN(CC)CCCC(C)Nc1ccc2cc(OC)ccc2n1` (centres undefined), the T/C by setting is: (dose: 6.25 mg/kg/injection, schedule: Q01DX005 (ip), vehicle: saline) 103 % of control; (dose: 12.5 mg/kg/injection, schedule: Q01DX005 (ip), vehicle: saline) 103 % of control.

For `CCn1c2ccccc2n2c(=O)cc(-c3ccccc3)c(C#N)c12`, the T/C is 98 % of control under setting [10], 106 % of control under setting [11] and 97 % of control under setting [12].

Turning to `C/C=C\C=C/NC(=O)N1CCCC1`, the T/C is, setting by setting: under setting [10], 113 % of control; under setting [11], 118 % of control; under setting [12], 116 % of control.

Turning to `C[n+]1c2ccccc2c(N)c2ccccc21`, under “dose: 30.0 mg/kg/injection, schedule: Q04DX002 (ip), vehicle: saline with Tween-80”, the T/C was 117 % of control.

For `Nc1nc(C2CCCC2)c(I)c(=O)[nH]1`, the T/C reads like this: (dose: 50.0 mg/kg/injection, schedule: Q01DX005 (ip), vehicle: Klucel (hydroxypropylcellulose) (HPC)) 105 % of control; (dose: 100.0 mg/kg/injection, schedule: Q01DX005 (ip), vehicle: Klucel (hydroxypropylcellulose) (HPC)) 108 % of control; (dose: 200.0 mg/kg/injection, schedule: Q01DX005 (ip), vehicle: Klucel (hydroxypropylcellulose) (HPC)) 92 % of control.

As for `Brc1ccc(/C=C/c2ccnnc2)cc1`, the T/C was 93 % of control under setting [8]; 94 % of control under setting [9]; 100 % of control (dose: 200.0 mg/kg/injection, schedule: Q01DX009 (ip), vehicle: saline).

In the case of `CC(O)C1/C=C/C=C\C(=O)O[C@@H]2C[C@H]3OC4C5OC5(C)CCC4(COC(=O)C4O[C@@]4(C)CCO1)[C@]2(C)[C@]31CO1` (some centres undefined), the T/C is, setting by setting: (dose: 1.25 mg/kg/injection, schedule: Q01DX009 (ip), vehicle: Klucel (hydroxypropylcellulose) (HPC)) 104 % of control; (dose: 2.5 mg/kg/injection, schedule: Q01DX009 (ip), vehicle: Klucel (hydroxypropylcellulose) (HPC)) 113 % of control; (dose: 5.0 mg/kg/injection, schedule: Q01DX009 (ip), vehicle: Klucel (hydroxypropylcellulose) (HPC)) 118 % of control; (dose: 10.0 mg/kg/injection, schedule: Q01DX009 (ip), vehicle: Klucel (hydroxypropylcellulose) (HPC)) 122 % of control.

`CP1(=S)CC(Br)=C2CCCCC21` (centres undefined): the T/C (dose: 100.0 mg/kg/injection, schedule: Q04DX003 (ip), vehicle: Klucel (hydroxypropylcellulose) (HPC)) was 108 % of control; the T/C (dose: 200.0 mg/kg/injection, schedule: Q04DX003 (ip), vehicle: Klucel (hydroxypropylcellulose) (HPC)) is 106 % of control; the T/C (dose: 400.0 mg/kg/injection, schedule: Q04DX003 (ip), vehicle: Klucel (hydroxypropylcellulose) (HPC)) is 107 % of control.

For the compound `[Mn+2].[O-]c1cc(Br)ccc1/C=N/Nc1ccccn1.[O-]c1cc(Br)ccc1/C=N/Nc1ccccn1`, the T/C is, setting by setting: under setting [5], 87 % of control; under setting [6], 91 % of control; (dose: 400.0 mg/kg/injection, schedule: Q01DX005 (ip), vehicle: saline with Tween-80) 100 % of control.

For the compound `CC(C)(C)NCC(O)c1ccc(O)c(CO)n1` (centres undefined), the T/C runs as follows: under setting [13], 95 % of control; under setting [14], 102 % of control; (dose: 200.0 mg/kg/injection, schedule: Q01DX005 (ip), vehicle: saline) 95 % of control.

As to `CC(/C=C/c1ccc(Cl)cc1)=N\NC(N)=O`, the T/C is, setting by setting: under setting [10], 94 % of control; under setting [11], 99 % of control; under setting [12], 99 % of control.

Consider `CC(C)NC1(N(C)C)N=C(N(C)C)N=C(N(C)C)O1` (centres undefined), for which the T/C under setting [13] was 101 % of control and the T/C under setting [14] was 101 % of control.

For the compound `CCN(CC)c1ccc2nc3ccc(=[N+](CC)CC)cc-3oc2c1`, the T/C reads like this: (dose: 7.5 mg/kg/injection, schedule: Q01DX005 (ip), vehicle: saline) 105 % of control; (dose: 15.0 mg/kg/injection, schedule: Q01DX005 (ip), vehicle: saline) 109 % of control.

In the case of `Nc1nnn(CCCl)n1`, the T/C runs as follows: (dose: 100.0 mg/kg/injection, schedule: Q01DX001 (ip), vehicle: Klucel (hydroxypropylcellulose) (HPC)) 88 % of control; (dose: 200.0 mg/kg/injection, schedule: Q01DX001 (ip), vehicle: Klucel (hydroxypropylcellulose) (HPC)) 88 % of control.

As to `CCc1nn(CCCN2CCN(c3cccc(Cl)c3)CC2)c(=O)n1CC`, the T/C was 114 % of control under setting [8] and 116 % of control under setting [9].

The values above are taken from PubChem BioAssay AID330 (DTP/NCI, 2004).
